From US12617818B2, “Compositions and methods for modulating myosin subfragment-2 coiled coil stability and methods for using them” (UNIVERSITY OF NORTH TEXAS, priority 2020, dated 2026)
Several values for one entry are separate records, joined by “and”; a condition that tells them apart may be missing. Equal values may be shown once.

Key:
[1] = biological target: T1, cardiac muscle myosin S2 peptide (MYH7) (Homo sapiens, UniProt P12883); assay: Gravitational force spectroscopy (GFS), uncoiling of cardiac myosin S2 peptide dimer; type: biochemical; settings: for Force required to uncoil S2 molecule: length 10 nm, in presence of the anti-S2 peptide, ± SEM
T1 construct: host or cells: chemical synthesis
T1 sequence (P12883 912-947 limits assumed): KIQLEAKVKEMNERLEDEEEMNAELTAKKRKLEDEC
Excerpt: 3-aminopropyltriethoxysilane, acetone, coupling buffer (0.01 M pyridine in water with pH 6.0), 5% glutaraldehyde, quenching solution (1 M glycine in water with pH 7.0), blocking buffer (0.01 M Tris, 0.1% sodium azide, 0.1% bovine serum albumin, 0.15 M sodium chloride, and 0.001 M ethylenediaminetetraacetic acid with pH 7.0), wash buffer (0.01 M Tris, 0.1% sodium azide, 0.15 M sodium chloride, and 0.001 M ethylenediaminetetraacetic acid with pH 7.0) low salt buffer (0.1 M potassium chloride, 0.02 M imidazole, 5 mM magnesium chloride, with pH 7.0), 1-ethyl-3-(3-dimethyaminopropyl) carbodiimide, N-hydroxysuccinamide, iodoacetamide-succinimidyl ester, 8M urea solution (50 mM imidazole and 0.1 mM tris (2-carboxyethyl) phosphine with pH 7.0) monodisperse silica beads, glass slides, glass coverslips, vacuum grease, rabbit skeletal myosin, purified actin (G-actin), 1 μM human β-cardiac myosin S2 peptide, 1 μM human β-cardiac mutants myosin S2 peptide (E930del and E924K), 1 μM human skeletal myosin S2 peptide, 1 μM human smooth myosin S2 peptide, stabilizer peptide, and destabilizer peptide. A light microscope with an objective lens of 10× was mounted on an alt-azimuthal mount. A digital video camera of Sony, XCD-V60 was replaced with the ocular lenses. Extension springs on steel bracket held the alt-azimuthal mount suspended.
Gravitational force spectroscopy (GFS), is a single molecule force spectroscopy that utilizes gravitational force to measure absolute length of a single molecule at the given force calculated by the density of the bead suspending the molecule. This technique was discovered and developed in Root lab, which measures the forces in piconewton and sub-piconewton levels. Other than absolute length of a molecule, GFS measures force range required to uncoil, stretch or extend the molecule yielding a force-distance profile for the suspended molecule. Besides that, based on the force-distance profile, number of amino acids within the molecule can be calculated. […] The GFS allowed to test the flexibility or stability of a single molecule of myosin S2 peptide and also for the S2 peptides treated with anti-S2 peptides. Flexibility of myosin S2 is not dependent on assembly myosin as a thick filament or myosin in its single molecule form. The flexibility of myosin S2 region was reported to be similar in single molecule form or myosin in a thick filament assembly thus it could be conceived that the changes seen on flexibility of myosin S2 in presence of anti-S2 peptides would correlate to changes in myosin S2 flexibility for myosin in a thick filament form (Singh et al., 2018). The schematic diagram of GFS is shown below (schematic diagrams of GFS which has two modes: (FIG. 15) free-fall mode, (FIG. 16) rotational mode.
GFS set up assembly contains a light microscope that is horizontally mounted on an alt-azimuthal which is suspended with help of extension springs on a steel bracket. To capture both images and videos of suspended molecule, a digital video camera has been placed instead of the ocular lenses. The molecule of interest is tethered between an immobile edge of glass coverslip placed on a glass slide and mobile silica or glass bead. Slide with the molecule of interest in inserted into the light microscope component of GFS. The bead with molecule of interest is imaged through the microscope and then oriented to the direction of gravity vector to allow the maximal gravitation force exerted on to the bead. GFS has two modes, one is called rotational mode or an equilibrium mode which measures the absolute length of a single molecule and the second one is called free fall mode which measures the force required to unwind, uncoil, stretch or extend the molecule of interest.
Free fall mode, another measurement variant of GFS which allows the user to get a force distance profile on a single molecule experiencing the gravitational force. […]

[2] = biological target: T2, human cardiac myosin S2 peptide (Homo sapiens, UniProt P12883); assay: Competitive ELISA (cELISA) against polyclonal anti-S2 antibody; type: binding; settings: curve fit of OD vs peptide concentration; read-out: binding efficiency (Kd) to human cardiac myosin S2 peptide
T2 construct: The 19 residue peptide was chemically synthesized
Description: Phosphate buffer saline (PBS) contained 0.14 M sodium chloride, 2.7 mM potassium chloride, 1.5 mM potassium phosphate monobasic, and 8.1 mM sodium phosphate dibasic with pH 7.4. Detergent buffer was made with 0.05% triton X-100 in PBS, blocking buffer was made with 3% powdered milk in detergent buffer. Assay buffer contained 100 mM potassium phosphate dibasic, 100 mM potassium phosphate monobasic, 1 M potassium chloride and 10 mM magnesium chloride with pH 7.0. Stocks of primary antibody (polyclonal antibody anti-S2), rabbit skeletal myosin, human cardiac myosin S2 peptide, stabilizer and destabilizer peptide. Secondary antibody conjugated with alkaline phosphatase was anti-guinea pig immunoglobulin G (IgG)-alkaline phosphatase (Sigma-Aldrich, catalog number A5062) produced in goat and isolated by affinity chromatography. Substrate was 5-Bromo-4-chloro-3-indolyl phosphate (BCIP) tablets dissolved in 10 ml of distilled water per tablet and 96 well microtiter plate.
Competitive Enzyme Linked Immunosorbent Assay (cELISA) is a classical immunochemical test to validate the binding efficiency and specificity in lower molar concentrations (Yorde et al., 1976; Voller et al., 1978; Walker, J. M. 1996). In this assay the polyclonal antibody anti-S2 raised against single alpha helix of myosin S2 would be used to compete with stabilizer or destabilizer peptide to bind myosin S2 in rabbit skeletal myosin molecule as well as small human cardiac myosin S2 peptide. This cELISA, thus have two molecules polyclonal anti-S2 and stabilizer peptide which have two binding sites one on rabbit skeletal myosin and the other one being on small human cardiac myosin S2. Since both polyclonal anti-S2 and stabilizer peptide were designed against human β-cardiac myosin S2 they both would have a stronger affinity towards the smaller human β-cardiac myosin S2 peptide against the myosin S2 on rabbit skeletal myosin.
To test the binding specificity and efficiency of stabilizer or destabilizer peptide the following setup was used. Start of the setup would be to coat the wells with rabbit skeletal myosin molecule and add appropriate amount human cardiac myosin S2 peptide that would bind the primary polyclonal anti-S2 antibody and when washed there won't be enough primary polyclonal anti-S2 antibody to bind myosin S2 of rabbit skeletal myosin adsorbed on the wells. When alkaline phosphatase conjugated secondary antibody is added on to the wells, it won't have enough or none primary polyclonal anti-S2 antibody to bind. After addition of color developing BCIP substrate to the wells it would lead to low or no color development leading to lower optical density (OD). […]

Force required to uncoil S2 molecule [1] [pN] | Force required to uncoil S2 molecule ([1]; listed as destabilizer) | decrease of force required to uncoil the coiled coil ([1]; vs absence of anti-S2 peptide) [times] | Kd [2] | Force required to uncoil S2 molecule ([1]; listed as stabilizer) | increase of force required to uncoil the coiled coil ([1]; vs absence of anti-S2 peptide) [times] | SMILES
4.36E−01 ± 3.30E−02 | 4.36×10^−1±3.30×10^−2 pN | 1.98 | 6 nM and 1 nM |  |  | CSCC[C@H](NC(=O)[C@H](CCC(=O)O)NC(=O)[C@H](CCCNC(=N)N)NC(=O)[C@H](CCC(=O)O)NC(=O)[C@H](CC(=O)O)NC(=O)[C@H](CCC(=O)O)NC(=O)[C@H](CC(C)C)NC(=O)[C@H](CCCNC(=N)N)NC(=O)[C@H](CCC(=O)O)NC(=O)[C@H](CC(N)=O)NC(=O)[C@H](CCSC)NC(=O)[C@@H](N)CCC(=O)O)C(=O)N[C@@H](CCCCN)C(=O)N[C@@H](C)C(=O)N[C@@H](CCC(=O)O)C(=O)N[C@@H](CC(C)C)C(=O)N[C@H](C(=O)N[C@@H](C)C(=O)N[C@@H](CCCCN)C(=O)O)[C@@H](C)O [Destabilizer]
1.55E+00 ± 1.46E−01 |  |  | 1 nM | 1.55±1.46×10^−1 pN | 1.80 | C[C@H](NC(=O)[C@H](CCCCN)NC(=O)[C@H](Cc1ccccc1)NC(=O)[C@H](CCCCN)NC(=O)[C@H](CCCCN)NC(=O)[C@H](CCCCN)NC(=O)[C@H](CCCCN)NC(=O)[C@H](CCCCN)NC(=O)[C@H](CCCCN)NC(=O)[C@H](CCCCN)NC(=O)[C@@H](N)CCCCN)C(=O)N[C@@H](CCCCN)C(=O)N[C@@H](CCCCN)C(=O)N[C@@H](CCCCN)C(=O)N[C@@H](CCCCN)C(=O)N[C@@H](CCCCN)C(=O)N[C@@H](CCCCN)C(=O)O [Stabilizer]
